Consider ten molecules from ChEMBL document CHEMBL1629609, “Phenotypic and enzymatic comparative analysis of the novel KPC variant KPC-5 and its evolutionary variants, KPC-2 and KPC-4” (Antimicrob Agents Chemother, 2009).

The subject of data set [1] is Escherichia coli. Description: Metabolic stability in Escherichia coli TOP10 harboring beta-lactamase KPC-4 assessed as hydrolysis rate per mg of extracts at 100 uM after 5 mins by spectrophotometric analysis. It is filed as ADME, organism-based. The settings on record: in vivo.
Data set [2] has as its system Escherichia coli. Put plainly: Metabolic stability in Escherichia coli TOP10 harboring beta-lactamase KPC-4 assessed as hydrolysis rate per mg of extracts at 100 uM after 5 mins by spectrophotometric analysis in presence of clavulanic acid. The class given is ADME, organism-based. The settings on record: in vivo.
The subject of data set [3] is Escherichia coli. Put plainly: Metabolic stability in Escherichia coli TOP10 harboring beta-lactamase KPC-2 assessed as hydrolysis rate per mg of extracts at 100 uM after 5 mins by spectrophotometric analysis. It is filed as ADME, organism-based. The settings on record: in vivo.
The subject of data set [4] is Escherichia coli. Put plainly: Metabolic stability in Escherichia coli TOP10 harboring beta-lactamase KPC-5 assessed as hydrolysis rate per mg of extracts at 100 uM after 5 mins by spectrophotometric analysis. It is filed as ADME, organism-based. The settings on record: in vivo.
Data set [5] relates to Escherichia coli. Description: Metabolic stability in Escherichia coli TOP10 harboring beta-lactamase KPC-2 assessed as hydrolysis rate per mg of extracts at 100 uM after 5 mins by spectrophotometric analysis in presence of clavulanic acid. The class given is ADME, organism-based. The settings on record: in vivo.
The subject of data set [6] is Escherichia coli. Put plainly: Metabolic stability in Escherichia coli TOP10 harboring beta-lactamase KPC-5 assessed as hydrolysis rate per mg of extracts at 100 uM after 5 mins by spectrophotometric analysis in presence of clavulanic acid. It is filed as ADME, organism-based. The settings on record: in vivo.
In data set [7] the test system is Escherichia coli. Put plainly: Antibacterial activity against Escherichia coli TOP10 harboring beta-lactamase KPC-4 by agar dilution method. The class given is functional. In general terms: In agar dilution, organisms are placed on agar that contains the substance at set levels.
Data set [8] has as its system Escherichia coli. Put plainly: Antibacterial activity against Escherichia coli TOP10 by agar dilution method. It is filed as functional.
For data set [9], the system named is Enterobacter cancerogenus. Put plainly: Antibacterial activity against Enterobacter cancerogenus E624 harboring beta-lactamase KPC-4 by agar dilution method. The class given is functional.
For data set [10], the system named is Escherichia coli. Put plainly: Antibacterial activity against Escherichia coli TOP10 harboring beta-lactamase KPC-2 by agar dilution method. The class given is functional.
The test system of data set [11] is Escherichia coli. Put plainly: Ratio of MIC for Escherichia coli TOP10 harboring beta-lactamase KPC-2 to MIC for Escherichia coli TOP10 harboring beta-lactamase KPC-5. It is filed as functional.
In data set [12] the test system is Escherichia coli. Description: Antibacterial activity against Escherichia coli TOP10 harboring beta-lactamase KPC-5 by agar dilution method. The class given is functional.
Data set [13] concerns Escherichia coli. Put plainly: Ratio of MIC for Escherichia coli TOP10 harboring beta-lactamase KPC-2 to MIC for Escherichia coli TOP10 harboring beta-lactamase KPC-4. It is filed as functional.
Data set [14] deals with Pseudomonas aeruginosa. Put plainly: Antibacterial activity against Pseudomonas aeruginosa PR280 harboring beta-lactamase KPC-5 by agar dilution method. It is filed as functional.
For data set [15], the system named is Escherichia coli. Put plainly: Metabolic stability in Escherichia coli TOP10 harboring beta-lactamase KPC-5 assessed as hydrolysis rate per mg of extracts at 50 uM after 5 mins by spectrophotometric analysis. The class given is ADME, organism-based. The following applies: in vivo.
Data set [16] relates to Escherichia coli. Description: Metabolic stability in Escherichia coli TOP10 harboring beta-lactamase KPC-2 assessed as hydrolysis rate per mg of extracts at 50 uM after 5 mins by spectrophotometric analysis. It is filed as ADME, organism-based. The following applies: in vivo.
In data set [17] the test system is Escherichia coli. Put plainly: Metabolic stability in Escherichia coli TOP10 harboring beta-lactamase KPC-4 assessed as hydrolysis rate per mg of extracts at 50 uM after 5 mins by spectrophotometric analysis. It is filed as ADME, organism-based. The settings on record: in vivo.
Data set [18] relates to Pseudomonas aeruginosa. Description: Antibacterial activity against Pseudomonas aeruginosa PR100 harboring beta-lactamase KPC-2 by agar dilution method. The class given is functional.
Data set [19] relates to Escherichia coli. Put plainly: Antibacterial activity against Escherichia coli TOP10 by agar dilution method in presence of clavulanic acid.
The test system of data set [20] is Escherichia coli. Description: Antibacterial activity against Escherichia coli TOP10 harboring beta-lactamase KPC-4 by agar dilution method in presence of clavulanic acid. The class given is functional.
Data set [21] concerns Escherichia coli. Description: Antibacterial activity against Escherichia coli TOP10 harboring beta-lactamase KPC-2 by agar dilution method in presence of clavulanic acid. It is filed as functional.
The subject of data set [22] is Escherichia coli. Put plainly: Antibacterial activity against Escherichia coli TOP10 harboring beta-lactamase KPC-5 by agar dilution method in presence of clavulanic acid.
Data set [23] deals with Escherichia coli. Description: Antibacterial activity against Escherichia coli TOP10 harboring beta-lactamase KPC-5 by agar dilution method in presence of Tazobactam. It is filed as functional.
Data set [24] concerns Enterobacter cancerogenus. Description: Antibacterial activity against Enterobacter cancerogenus E624 harboring beta-lactamase KPC-4 by agar dilution method in presence of Tazobactam. It is filed as functional.
Data set [25] relates to Escherichia coli. Description: Antibacterial activity against Escherichia coli TOP10 by agar dilution method in presence of Tazobactam. It is filed as functional.
Data set [26] deals with Escherichia coli. Description: Antibacterial activity against Escherichia coli TOP10 harboring beta-lactamase KPC-2 by agar dilution method in presence of Tazobactam. It is filed as functional.
Data set [27] has as its system Pseudomonas aeruginosa. Put plainly: Antibacterial activity against Pseudomonas aeruginosa PR280 harboring beta-lactamase KPC-5 by agar dilution method in presence of Tazobactam. It is filed as functional.
For data set [28], the system named is Escherichia coli. Put plainly: Antibacterial activity against Escherichia coli TOP10 harboring beta-lactamase KPC-4 by agar dilution method in presence of Tazobactam. The class given is functional.
Data set [29] deals with Pseudomonas aeruginosa. Put plainly: Antibacterial activity against Pseudomonas aeruginosa PR100 harboring beta-lactamase KPC-2 by agar dilution method in presence of Tazobactam. It is filed as functional.

Molecules are shown by their SMILES. Converted amounts (≈) assume the structure as drawn.

As for `CC(=O)OCC1=C(C(=O)O)N2C(=O)[C@@H](NC(=O)Cc3cccs3)[C@H]2SC1` [CEPHALOTHIN], the Stability turned out to be 53 nmol/min in the data set on Escherichia coli [1]; 6 nmol/min in the data set on Escherichia coli [2]; 65 nmol/min in the data set with Escherichia coli [3]; 50 nmol/min with Escherichia coli [4]; 25 nmol/min in the data set with Escherichia coli [5]; 7 nmol/min in the data set with Escherichia coli [6].
On to `CO/N=C(\C(=O)N[C@@H]1C(=O)N2C(C(=O)[O-])=C(C[N+]3(C)CCCC3)CS[C@H]12)c1csc(N)n1`, for which the MIC is 8 µg/mL (≈ 16.6 µM) against Escherichia coli [7], less than 0.06 µg/mL against Escherichia coli [8], 64 µg/mL (≈ 133 µM) in data set [9] and 16 µg/mL (≈ 33.3 µM) in the data set with Escherichia coli [10].
For the molecule `CO[C@@]1(NC(=O)Cc2cccs2)C(=O)N2C(C(=O)O)=C(COC(N)=O)CS[C@@H]21` [CEFOXITIN], the MIC with Escherichia coli [7] was 8 µg/mL (≈ 18.7 µM); against Escherichia coli [8] it was 4 µg/mL (≈ 9.36 µM); in the data set with Escherichia coli [12], 16 µg/mL (≈ 37.4 µM); in data set [9], greater than 64 µg/mL; in the data set on Escherichia coli [10], 32 µg/mL (≈ 74.9 µM). Besides, the Ratio with Escherichia coli [11] is given as 2; in the data set with Escherichia coli [13], 4.
On to `CO/N=C(\C(=O)N[C@@H]1C(=O)N2C(C(=O)O)=C(COC(C)=O)CS[C@H]12)c1csc(N)n1` [CEFOTAXIME], for which the MIC is 64 µg/mL (≈ 141 µM) in the data set on Escherichia coli [7]; less than 0.06 µg/mL against Escherichia coli [8]; 64 µg/mL (≈ 141 µM) against Escherichia coli [12]; greater than 64 µg/mL in data set [9]; 64 µg/mL (≈ 141 µM) with Escherichia coli [10]. Moreover, the Stability worked out at 172 nmol/min in the data set with Escherichia coli [1]; 20 nmol/min with Escherichia coli [2]; 1310 nmol/min with Escherichia coli [3]; 368 nmol/min in the data set with Escherichia coli [4]; 487 nmol/min in the data set on Escherichia coli [5]; 48 nmol/min in the data set on Escherichia coli [6].
With `CC(C)(O/N=C(\C(=O)N[C@@H]1C(=O)N2C(C(=O)[O-])=C(C[n+]3ccccc3)CS[C@H]12)c1csc(N)n1)C(=O)O` [CEFTAZIDIME], the MIC against Escherichia coli [7] was greater than 128 µg/mL; against Escherichia coli [8] it was 0.12 µg/mL (≈ 0.22 µM); against Escherichia coli [12] it was 128 µg/mL (≈ 234 µM); in the data set on Pseudomonas aeruginosa [14] it was 128 µg/mL (≈ 234 µM); in data set [9], greater than 64 µg/mL; against Escherichia coli [10] it was 32 µg/mL (≈ 58.5 µM). In the data set on Pseudomonas aeruginosa [18], this molecule had an MIC of 64 µg/mL (≈ 117 µM). Moreover, the figures for the Stability with Escherichia coli [15], in the data set on Escherichia coli [16] and in the data set with Escherichia coli [17] were 6 nmol/min, 3 nmol/min and 7 nmol/min, respectively. Also, the Ratio in the data set with Escherichia coli [13] worked out at 8.
Consider `C[C@@H](O)[C@H]1C(=O)N2C(C(=O)O)=C(S[C@@H]3CN[C@H](C(=O)Nc4cccc(C(=O)O)c4)C3)[C@H](C)[C@H]12`, for which the MIC was 2 µg/mL (≈ 4.21 µM) against Escherichia coli [7]; less than 0.06 µg/mL against Escherichia coli [8]; 8 µg/mL (≈ 16.8 µM) against Escherichia coli [12]; greater than 16 µg/mL in data set [9]; 16 µg/mL (≈ 33.6 µM) against Escherichia coli [10].
On to `C[C@@H](O)[C@H]1C(=O)N2C(C(=O)O)=C(SCCN=CN)C[C@H]12` [IMIPENEM ANHYDROUS], for which the MIC in the data set on Escherichia coli [19] was 0.12 µg/mL; against Escherichia coli [7] it was 2 µg/mL (≈ 6.68 µM); against Escherichia coli [8], 0.12 µg/mL (≈ 0.401 µM); in the data set on Escherichia coli [20] it was less than 0.06 µg/mL; with Escherichia coli [12], 4 µg/mL (≈ 13.4 µM); against Pseudomonas aeruginosa [14], greater than 64 µg/mL. Also, the MIC was greater than 32 µg/mL in [9]; 4 µg/mL with Escherichia coli [21]; 16 µg/mL (≈ 53.4 µM) against Escherichia coli [10]; 0.12 µg/mL in the data set on Escherichia coli [22]; greater than 64 µg/mL in the data set with Pseudomonas aeruginosa [18]. Moreover, the Stability is given as 69 nmol/min in the data set on Escherichia coli [1], 412 nmol/min with Escherichia coli [3] and 116 nmol/min with Escherichia coli [4].
On to `C[C@H]1[C@H](NC(=O)/C(=N\OC(C)(C)C(=O)O)c2csc(N)n2)C(=O)N1S(=O)(=O)O` [AZTREONAM], for which the MIC was greater than 128 µg/mL against Escherichia coli [7]; less than 0.12 µg/mL against Escherichia coli [8]; greater than 128 µg/mL with Escherichia coli [12]; greater than 64 µg/mL in data set [9]; greater than 128 µg/mL with Escherichia coli [10].
As for `CCN1CCN(C(=O)N[C@@H](C(=O)N[C@@H]2C(=O)N3[C@@H]2SC(C)(C)[C@@H]3C(=O)O)c2ccccc2)C(=O)C1=O` [PIPERACILLIN], the MIC in the data set with Escherichia coli [23] is greater than 256 µg/mL; in [24] it was greater than 64 µg/mL; with Escherichia coli [25] it was 1 µg/mL; in the data set on Escherichia coli [26], greater than 256 µg/mL; with Pseudomonas aeruginosa [27], 128 µg/mL; in the data set with Escherichia coli [28], 128 µg/mL. The MIC in the data set with Pseudomonas aeruginosa [29] is greater than 256 µg/mL.
Turning to `C[C@@H](O)[C@H]1C(=O)N2C(C(=O)O)=C(S[C@@H]3CN[C@H](C(=O)N(C)C)C3)[C@H](C)[C@H]12` [MEROPENEM], the MIC was 1 µg/mL (≈ 2.61 µM) against Escherichia coli [7], less than 0.06 µg/mL against Escherichia coli [8], greater than 32 µg/mL in [9] and 8 µg/mL (≈ 20.9 µM) in the data set on Escherichia coli [10].
